# Laboratory results as given in patent publication US9150567B2, “Substituted tetrazol-1-yl-phenoxymethyl-thiazol-2-yl-piperidinyl-pyrimidine salts” (CYMABAY THERAPEUTICS, INC., priority 2009, dated 2015).
# “And” between values parts separate entries of the source, which are not always exact repeats. Identical values can stand only once. Counter-ions that a name gives are not always drawn. Like-named read-outs stand apart in the source and are kept apart here.
# Assays:
# [1] = Overnight / elevated RH stress of the crystalline salts; format: physicochemical; details: overnight / elevated relative humidity stress
# [2] = Systemic exposure and pharmacokinetics after single oral gavage dose of 200 mg/kg in fasted male SD rats; format: in vivo, Sprague Dawley (SD) rats; details: for Fold difference in plasma concentration compared to micronized free-base form: 30 hours post-dose; for Fold difference in plasma concentration compared to micronized free-base form / Increase of systemic drug exposure in AUC0-t compared with micro MBX-2982 (free base): male SD rats; for Increase of systemic drug exposure in AUC0-t compared with micro MBX-2982 (free base): equivalent amounts
# Description: Two studies were conducted in order to compare the systemic exposure and pharmacokinetics (PK) of microcrystalline MBX-2982 and salt forms of MBX-2982 in fasted male Sprague Dawley (SD) rats following single oral gavage (PO) doses of 200 mg/kg. Four salt foms of MBX-2982 were investigate in the studies. The tested salts were HCl Form I, HCl salt Form II, mesylate salt and the tosylate salt.
# Preparation of samples was performed by solvent precipitation of plasma proteins in a 1 mL/well 96-well plate. Standards were prepared by spiking 10 μL of blank plasma with 10 μL of standard solution (acetonitrile containing MBX-2982 at 0.01, 0.02, 0.05, 0.1, 0.2, 0.5, 1, 2, 5, 10, 20, 50 and 100 μg/mL) and 300 μL of 0.1% formic acid in acetonitrile containing 0.2 μg/mL internal standard. Plasma samples were prepared by adding 10 μL of plasma sample, 10 μL of acetonitrile, and 300 μL of 0.2 μg/mL internal standard in 0.1% formic acid in acetonitrile. After addition of the organic solvents, all samples were vortexed briefly and centrifuged at 3600 rpm for 10 minutes. Some of the samples were diluted 1.3 to 2-fold with blank plasma. An aliquot of the supernatant (25 μL) was transfer to a 1 mL/well 96-well plate and mixed with 200 μL water/ACN (50/50, v/v) and injected into the HPLC.
# The suspensions for microcrystalline MBX-2982 (free base) and salt forms of MBX-2982 were prepared in 1% carboxymethylcellulose and 2% tween 80 in water (w/w/v).
# Five groups of animals were given microcrystalline and salt forms suspension doses of MBX-2982 orally at 200 mg/kg, respectively. Food was withheld the night before dose and returned nine hours after dosing. Blood samples were collected at 0.25, 0.5, 1, 2, 4, 6, 9, 24, 30 and 48 h post dose. MBX-2982 plasma concentration from these samples was analyzed by a non-validated high performance liquid chromatography in conjunction with mass spectrometry (LC-MS/MS) method.
# Plasma concentration-time data for individual animals were analyzed using WinNonlin software (Professional, version 5.0.1; Pharsight Corp.). A non-compartmental model (model 200) was used. Peak area ratios of MBX-2982 to internal standard and concentration were fitted to a quadratic equation (Calibration Curve) with 1/x weighting using a quadratic regression program in Analyst version 1.4.2 (Applied Biosystem Inc). The equations were then used to interpolate the concentrations of MBX-2982 in samples from peak area to internal standard ratio.
# The following pharmacokinetic parameters were calculated: • 1) Cmax: Maximum (peak) plasma concentration • 2) Tmax: Time at which Cmax occurred • 3) t1/2: Terminal phase half-life • 4) AUC0-t: Area under the concentration-time curve from time 0 to last measurable concentration • 5) AUC0-inf: Area under the concentration-time curve from time 0 extrapolated to infinity
# [3] = PO 200 mg/kg, listed as HCl form II, hydrochloride
# [4] = fasted male SD rats, single PO dose 200 mg/kg, mean ± SD, hydrochloride
# [5] = 0.5 h post dose, fasted male SD rats, PO 200 mg/kg, mean ± SD
# [6] = 1 h post dose, fasted male SD rats, PO 200 mg/kg, mean ± SD
# [7] = 2 h post dose, fasted male SD rats, PO 200 mg/kg, mean ± SD
# [8] = 24 h post dose, fasted male SD rats, PO 200 mg/kg, mean ± SD
# [9] = 30 h post dose, fasted male SD rats, PO 200 mg/kg, mean ± SD
# [10] = 48 h post dose, fasted male SD rats, PO 200 mg/kg, mean ± SD
# [11] = fasted male SD rats, single PO dose 200 mg/kg, mean ± SD
smiles,measurement,setting,value
"CCc1cnc(N2CCC(c3nc(COc4ccc(-n5cnnn5)cc4)cs3)CC2)nc1 [HBr salt, 5-ethyl-2-{4-[4-(4-tetrazol-1-yl-phenoxymethyl)-thiazol-2-yl]-piperidin-1-yl}-pyrimidine]",Appearance of the material after RH stress,[1],remained a free flowing powder
"CCc1cnc(N2CCC(c3nc(COc4ccc(-n5cnnn5)cc4)cs3)CC2)nc1.Cl [HCl Salt Form II, 5-ethyl-2-{4-[4-(4-tetrazol-1-yl-phenoxymethyl)-thiazol-2-yl]-piperidin-1-yl}-pyrimidine hydrochloride]",Mean plasma concentration of MBX-2982,"[2]; 0.5 h post dose, fasted male SD rats, PO 200 mg/kg, mean ± SD, hydrochloride",8060 ± 1610 ng/mL
same,Mean plasma concentration of MBX-2982,"[2]; 1 h post dose, fasted male SD rats, PO 200 mg/kg, mean ± SD, hydrochloride",16300 ± 2770 ng/mL
same,Mean plasma concentration of MBX-2982,"[2]; 2 h post dose, fasted male SD rats, PO 200 mg/kg, mean ± SD, hydrochloride",23700 ± 4220 ng/mL
same,Mean plasma concentration of MBX-2982,"[2]; 4 h post dose, fasted male SD rats, PO 200 mg/kg, mean ± SD, hydrochloride",29200 ± 3710 ng/mL
same,Mean plasma concentration of MBX-2982,"[2]; 6 h post dose, fasted male SD rats, PO 200 mg/kg, mean ± SD, hydrochloride",29100 ± 8130 ng/mL
same,Mean plasma concentration of MBX-2982,"[2]; 9 h post dose, fasted male SD rats, PO 200 mg/kg, mean ± SD, hydrochloride",23200 ± 5700 ng/mL
same,Mean plasma concentration of MBX-2982,"[2]; 24 h post dose, fasted male SD rats, PO 200 mg/kg, mean ± SD, hydrochloride",12020 ± 9330 ng/mL
same,Mean plasma concentration of MBX-2982,"[2]; 24 h post dose, fasted male SD rats, PO 200 mg/kg, mean ± SD, listed as HCl form II, hydrochloride",12020 ng/mL
same,Fold difference in plasma concentration compared to micronized free-base form,[2]; [3],186 fold
same,Mean plasma concentration of MBX-2982,"[2]; 30 h post dose, fasted male SD rats, PO 200 mg/kg, mean ± SD, hydrochloride",14900 ± 13200 ng/mL
same,Mean plasma concentration of MBX-2982,"[2]; 30 h post dose, fasted male SD rats, PO 200 mg/kg, mean ± SD, listed as HCl form II, hydrochloride",14900 ng/mL
same,Mean plasma concentration of MBX-2982,"[2]; 48 h post dose, fasted male SD rats, PO 200 mg/kg, mean ± SD, hydrochloride",32.5 ng/mL
same,AUC0-24,[2]; [4],482 ± 69.4 µg·h/mL
same,AUC0-inf,[2]; [4],469 µg·h/mL
same,AUC(0-t),[2]; [4],679 ± 208 µg·h/mL
same,Cmax,[2]; [4],31800 ± 5050 ng/mL
same,Tmax,[2]; [4],11.5 ± 12.4 h
same,t1/2,[2]; [4],2.09 h
same,Increase of systemic drug exposure in AUC0-t compared with micro MBX-2982 (free base),[2]; [3],2.9 fold
"CCc1cnc(N2CCC(c3nc(COc4ccc(-n5cnnn5)cc4)cs3)CC2)nc1 [MBX-2982, 5-ethyl-2-{4-[4-(4-tetrazol-1-yl-phenoxymethyl)-thiazol-2-yl]-piperidin-1-yl}-pyrimidine]",Mean plasma concentration of MBX-2982,[2]; [5],3890 ± 950 ng/mL
same,Mean plasma concentration of MBX-2982,[2]; [6],6700 ± 1270 ng/mL
same,Mean plasma concentration of MBX-2982,[2]; [7],11600 ± 1610 ng/mL
same,Mean plasma concentration of MBX-2982,[2]; [8],260 ng/mL and 260 ± 280 ng/mL
same,Mean plasma concentration of MBX-2982,[2]; [9],80 ng/mL and 80 ± 60 ng/mL
same,Mean plasma concentration of MBX-2982,[2]; [10],160 ± 300 ng/mL
same,concentration at 4 h,"[2]; male, Sprague-Dawley, rat, plasma, po, 4 h post dose, fasted male SD rats, PO 200 mg/kg, mean ± SD, read-out: Mean plasma concentration of MBX-2982",15800 ± 3740 ng/mL
same,concentration at 6 h,"[2]; male, Sprague-Dawley, rat, plasma, po, 6 h post dose, fasted male SD rats, PO 200 mg/kg, mean ± SD, read-out: Mean plasma concentration of MBX-2982",15900 ± 4940 ng/mL
same,concentration at 9 h,"[2]; male, Sprague-Dawley, rat, plasma, po, 9 h post dose, fasted male SD rats, PO 200 mg/kg, mean ± SD, read-out: Mean plasma concentration of MBX-2982",15000 ± 5900 ng/mL
same,half-life,"[2]; male, Sprague-Dawley, rat, plasma, po, fasted male SD rats, single PO dose 200 mg/kg, mean ± SD",3.53 ± 0.7 h
same,AUC(0-t),"[2]; male, Sprague-Dawley, rat, plasma, po, fasted male SD rats, single PO dose 200 mg/kg, mean ± SD, read-out: AUC0-24",233 ± 64.8 µg·h/mL
same,AUC(0-t),"[2]; male, Sprague-Dawley, rat, plasma, po, fasted male SD rats, single PO dose 200 mg/kg, mean ± SD, read-out: AUC0-t",236 ± 64.6 µg·h/mL
same,Cmax,"[2]; male, Sprague-Dawley, rat, plasma, po, fasted male SD rats, single PO dose 200 mg/kg, mean ± SD, read-out: Cmax",17400 ± 4190 ng/mL
same,Tmax,"[2]; male, Sprague-Dawley, rat, plasma, po, fasted male SD rats, single PO dose 200 mg/kg, mean ± SD, read-out: Tmax",5.88 ± 1.55 h
"CCc1cnc(N2CCC(c3nc(COc4ccc(-n5cnnn5)cc4)cs3)CC2)nc1 [Mesylate Salt, 5-ethyl-2-{4-[4-(4-tetrazol-1-yl-phenoxymethyl)-thiazol-2-yl]-piperidin-1-yl}-pyrimidine]",Appearance of the material after RH stress,[1],remained a free flowing powder
same,Mean plasma concentration of MBX-2982,[2]; [5],8520 ± 975 ng/mL
same,Mean plasma concentration of MBX-2982,[2]; [6],12200 ± 839 ng/mL
same,Mean plasma concentration of MBX-2982,[2]; [7],18800 ± 904 ng/mL
same,Mean plasma concentration of MBX-2982,"[2]; 4 h post dose, fasted male SD rats, PO 200 mg/kg, mean ± SD",26700 ± 4390 ng/mL
same,Mean plasma concentration of MBX-2982,"[2]; 6 h post dose, fasted male SD rats, PO 200 mg/kg, mean ± SD",21800 ± 6480 ng/mL
same,Mean plasma concentration of MBX-2982,"[2]; 9 h post dose, fasted male SD rats, PO 200 mg/kg, mean ± SD",18000 ± 5180 ng/mL
same,Mean plasma concentration of MBX-2982,[2]; [8],476 ± 344 ng/mL
same,Mean plasma concentration of MBX-2982,"[2]; 24 h post dose, fasted male SD rats, PO 200 mg/kg, mean ± SD, listed as mesylate",476 ng/mL
same,Fold difference in plasma concentration compared to micronized free-base form,[2]; PO 200 mg/kg,7 fold
same,Mean plasma concentration of MBX-2982,[2]; [9],574 ± 641 ng/mL
same,Mean plasma concentration of MBX-2982,"[2]; 30 h post dose, fasted male SD rats, PO 200 mg/kg, mean ± SD, listed as mesylate",574 ng/mL
same,Mean plasma concentration of MBX-2982,[2]; [10],82 ± 82 ng/mL
same,AUC0-24,[2]; [11],314 ± 65.7 µg·h/mL
same,AUC0-inf,[2]; [11],323 ± 62.0 µg·h/mL
same,AUC(0-t),[2]; [11],322 ± 63.6 µg·h/mL
same,Cmax,[2]; [11],26700 ± 4460 ng/mL
same,Tmax,[2]; [11],4.50 ± 1.00 h
same,t1/2,[2]; [11],4.11 ± 1.29 h
same,Increase of systemic drug exposure in AUC0-t compared with micro MBX-2982 (free base),[2]; PO 200 mg/kg,1.4 fold
"CCc1cnc(N2CCC(c3nc(COc4ccc(-n5cnnn5)cc4)cs3)CC2)nc1 [besylate salt, 5-ethyl-2-{4-[4-(4-tetrazol-1-yl-phenoxymethyl)-thiazol-2-yl]-piperidin-1-yl}-pyrimidine]",Appearance of the material after RH stress,[1],remained a free-flowing powder
"CCc1cnc(N2CCC(c3nc(COc4ccc(-n5cnnn5)cc4)cs3)CC2)nc1 [camsylate salt, 5-ethyl-2-{4-[4-(4-tetrazol-1-yl-phenoxymethyl)-thiazol-2-yl]-piperidin-1-yl}-pyrimidine]",Appearance of the material after RH stress,[1],remained a free flowing powder
"CCc1cnc(N2CCC(c3nc(COc4ccc(-n5cnnn5)cc4)cs3)CC2)nc1 [esylate salt, 5-ethyl-2-{4-[4-(4-tetrazol-1-yl-phenoxymethyl)-thiazol-2-yl]-piperidin-1-yl}-pyrimidine]",Appearance of the material after RH stress,[1],remained a free flowing powder
"CCc1cnc(N2CCC(c3nc(COc4ccc(-n5cnnn5)cc4)cs3)CC2)nc1 [sulfate salt, 5-ethyl-2-{4-[4-(4-tetrazol-1-yl-phenoxymethyl)-thiazol-2-yl]-piperidin-1-yl}-pyrimidine]",Appearance of the material after RH stress,[1],turned tacky
